PubChem BioAssay AID2060511 (Molecular Pharmacology Branch, DTP, NCI, 2025)

Tested on: 422866-222-R5-J1-PDC spheroids with HUVEC/MSC, viability
Assay: Anticancer human tumor 422866-222-R5-J1-PDC patient-derived pancreatic adenocarcinoma cell line growth inhibition [GQUAD]
Conditions: for IC50: curve of first compound; for viability, T/C: stronger effect = lower value
How it was run: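 Viability of tumor cells grown as complex spheroids with endothelial and stromal cells, exposed to drug combinations. Top concentration at or near clinical Cmax (else 10 microM), diluted in half-log increments.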

[1] = second compound 0.0316 µM, first compound 0.0316 µM
[2] = second compound 0.0316 µM, first compound 0.1 µM
[3] = second compound 0.0316 µM, first compound 0.316 µM
[4] = second compound 0.0316 µM, first compound 1 µM
[5] = second compound 0.0316 µM, first compound 3.16 µM
[6] = second compound 0.0316 µM, first compound 10 µM
[7] = second compound 0.1 µM, first compound 0.0316 µM
[8] = second compound 0.1 µM, first compound 0.1 µM
[9] = second compound 0.1 µM, first compound 0.316 µM
[10] = second compound 0.1 µM, first compound 1 µM
[11] = second compound 0.1 µM, first compound 3.16 µM
[12] = second compound 0.1 µM, first compound 10 µM
[13] = second compound 0.316 µM, first compound 0.0316 µM
[14] = second compound 0.316 µM, first compound 0.1 µM
[15] = second compound 0.316 µM, first compound 0.316 µM
[16] = second compound 0.316 µM, first compound 1 µM
[17] = second compound 0.316 µM, first compound 3.16 µM
[18] = second compound 0.316 µM, first compound 10 µM
[19] = second compound 1 µM, first compound 0.0316 µM
[20] = second compound 1 µM, first compound 0.1 µM
[21] = second compound 1 µM, first compound 0.316 µM
[22] = second compound 1 µM, first compound 1 µM
[23] = second compound 1 µM, first compound 3.16 µM
[24] = second compound 1 µM, first compound 10 µM
[25] = second compound 3.16 µM, first compound 0.0316 µM
[26] = second compound 3.16 µM, first compound 0.1 µM
[27] = second compound 3.16 µM, first compound 0.316 µM
[28] = second compound 3.16 µM, first compound 1 µM
[29] = second compound 3.16 µM, first compound 3.16 µM
[30] = second compound 3.16 µM, first compound 10 µM
[31] = second compound 10 µM, first compound 0.0316 µM
[32] = second compound 10 µM, first compound 0.1 µM
[33] = second compound 10 µM, first compound 0.316 µM
[34] = second compound 10 µM, first compound 1 µM
[35] = second compound 10 µM, first compound 3.16 µM
[36] = second compound 10 µM, first compound 10 µM
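Also: spheroids exposed to compounds for seven days before reading.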
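For viability, T/C in this document: percent viability relative to DMSO vehicle control taken as 100%.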

Cc1cccc(N(C)C(=O)C2C(O)CCN2c2nc(C)cc(C(F)(F)F)c2C#N)c1 (stereo not drawn) + CN(C)c1ccc(Nc2c3ccc(NC(=O)CCN4CCCC4)cc3nc3cc(NC(=O)CCN4CCCC4)ccc23)cc1
IC50 (second compound 0.0316 µM): > 10000 nM | IC50 (second compound 0.1 µM): > 10000 nM | IC50 (second compound 0.316 µM): > 10000 nM | IC50 (second compound 1 µM): > 10000 nM | IC50 (second compound 3.16 µM): > 10000 nM | IC50 (second compound 10 µM): > 10000 nM | viability, T/C [1]: 119% | viability, T/C [2]: 98.6% | viability, T/C [3]: 104% | viability, T/C [4]: 88.3% | viability, T/C [5]: 96.6% | viability, T/C [6]: 107% | viability, T/C [7]: 92.1% | viability, T/C [8]: 81% | viability, T/C [9]: 105% | viability, T/C [10]: 80.1% | viability, T/C [11]: 102% | viability, T/C [12]: 99.5% | viability, T/C [13]: 97.8% | viability, T/C [14]: 69.4% | viability, T/C [15]: 80.6% | viability, T/C [16]: 86.2% | viability, T/C [17]: 103% | viability, T/C [18]: 111% | viability, T/C [19]: 84.4% | viability, T/C [20]: 86.1% | viability, T/C [21]: 80.7% | viability, T/C [22]: 91.7% | viability, T/C [23]: 101% | viability, T/C [24]: 93.2% | viability, T/C [25]: 77.9% | viability, T/C [26]: 70.4% | viability, T/C [27]: 79.7% | viability, T/C [28]: 85.6% | viability, T/C [29]: 88.8% | viability, T/C [30]: 93.6% | viability, T/C [31]: 72.6% | viability, T/C [32]: 90.5% | viability, T/C [33]: 98.3% | viability, T/C [34]: 82.4% | viability, T/C [35]: 82.4% | viability, T/C [36]: 85%

Nc1ccn(C2OC(CO)C(O)C2(F)F)c(=O)n1 (stereo not drawn) + Cc1[nH]c2ccc(F)cc2c1-c1nc2c3cccnc3c3ncccc3c2[nH]1
IC50 (second compound 0.0316 µM): 800 nM | IC50 (second compound 0.1 µM): 427 nM | IC50 (second compound 0.316 µM): 1200 nM | IC50 (second compound 1 µM): 504 nM | IC50 (second compound 3.16 µM): 347 nM | IC50 (second compound 10 µM): 490 nM | viability, T/C [1]: 85.1% | viability, T/C [2]: 75.8% | viability, T/C [3]: 63.3% | viability, T/C [4]: 46% | viability, T/C [5]: 41.1% | viability, T/C [6]: 41.8% | viability, T/C [7]: 83.8% | viability, T/C [8]: 82.2% | viability, T/C [9]: 52.5% | viability, T/C [10]: 42.2% | viability, T/C [11]: 43.7% | viability, T/C [12]: 42.5% | viability, T/C [13]: 97.8% | viability, T/C [14]: 80.9% | viability, T/C [15]: 67.8% | viability, T/C [16]: 49.9% | viability, T/C [17]: 42% | viability, T/C [18]: 35.2% | viability, T/C [19]: 91.5% | viability, T/C [20]: 75.9% | viability, T/C [21]: 53.2% | viability, T/C [22]: 45.1% | viability, T/C [23]: 45.2% | viability, T/C [24]: 43.3% | viability, T/C [25]: 83.4% | viability, T/C [26]: 62.3% | viability, T/C [27]: 52.6% | viability, T/C [28]: 42.3% | viability, T/C [29]: 42.2% | viability, T/C [30]: 42.9% | viability, T/C [31]: 72.3% | viability, T/C [32]: 67.6% | viability, T/C [33]: 55.4% | viability, T/C [34]: 39.9% | viability, T/C [35]: 43% | viability, T/C [36]: 41.2%

CC1COCCN1c1cc(C2(S(C)(=N)=O)CC2)nc(-c2ccnc3[nH]ccc23)n1 (stereo not drawn) + Cc1[nH]c2ccc(F)cc2c1-c1nc2c3cccnc3c3ncccc3c2[nH]1
IC50 (second compound 0.0316 µM): 3010 nM | IC50 (second compound 0.1 µM): 2350 nM | IC50 (second compound 0.316 µM): 5490 nM | IC50 (second compound 1 µM): 3470 nM | IC50 (second compound 3.16 µM): 2280 nM | IC50 (second compound 10 µM): > 10000 nM | viability, T/C [1]: 99.6% | viability, T/C [2]: 84.9% | viability, T/C [3]: 90.2% | viability, T/C [4]: 62.4% | viability, T/C [5]: 52% | viability, T/C [6]: 41.5% | viability, T/C [7]: 78.9% | viability, T/C [8]: 83.8% | viability, T/C [9]: 92.3% | viability, T/C [10]: 62.2% | viability, T/C [11]: 48.9% | viability, T/C [12]: 42.5% | viability, T/C [13]: 106% | viability, T/C [14]: 84.9% | viability, T/C [15]: 88.2% | viability, T/C [16]: 72.6% | viability, T/C [17]: 56.2% | viability, T/C [18]: 41.7% | viability, T/C [19]: 70.3% | viability, T/C [20]: 90.4% | viability, T/C [21]: 78.8% | viability, T/C [22]: 66.7% | viability, T/C [23]: 51.4% | viability, T/C [24]: 45.2% | viability, T/C [25]: 69.4% | viability, T/C [26]: 79.4% | viability, T/C [27]: 67.5% | viability, T/C [28]: 57.3% | viability, T/C [29]: 48.4% | viability, T/C [30]: 40.2% | viability, T/C [31]: 81.6% | viability, T/C [32]: 63.7% | viability, T/C [33]: 65.6% | viability, T/C [34]: 50.4% | viability, T/C [35]: 50.7% | viability, T/C [36]: 54.3%

Nc1ccn(C2OC(CO)C(O)C2(F)F)c(=O)n1 (stereo not drawn) + Cc1cnc(CNC(=O)c2c(=O)c3ccc(N4CCCN(C)CC4)nc3n3c2sc2ccccc23)cn1
IC50 (second compound 0.0316 µM): 1190 nM | IC50 (second compound 0.1 µM): > 10000 nM | IC50 (second compound 0.316 µM): > 10000 nM | IC50 (second compound 1 µM): > 10000 nM | IC50 (second compound 3.16 µM): > 10000 nM | IC50 (second compound 10 µM): > 10000 nM | viability, T/C [1]: 86.7% | viability, T/C [2]: 67.8% | viability, T/C [3]: 69.1% | viability, T/C [4]: 47.2% | viability, T/C [5]: 41.9% | viability, T/C [6]: 43% | viability, T/C [7]: 85.6% | viability, T/C [8]: 87% | viability, T/C [9]: 70.7% | viability, T/C [10]: 48.6% | viability, T/C [11]: 50.8% | viability, T/C [12]: 54.8% | viability, T/C [13]: 96.5% | viability, T/C [14]: 81% | viability, T/C [15]: 70.3% | viability, T/C [16]: 62.3% | viability, T/C [17]: 54.1% | viability, T/C [18]: 58.1% | viability, T/C [19]: 78.2% | viability, T/C [20]: 72.7% | viability, T/C [21]: 74.3% | viability, T/C [22]: 69.2% | viability, T/C [23]: 68.3% | viability, T/C [24]: 63.4% | viability, T/C [25]: 70.5% | viability, T/C [26]: 88.6% | viability, T/C [27]: 72.4% | viability, T/C [28]: 79.8% | viability, T/C [29]: 71.2% | viability, T/C [30]: 58.4% | viability, T/C [31]: 84.9% | viability, T/C [32]: 78.4% | viability, T/C [33]: 89.5% | viability, T/C [34]: 79.2% | viability, T/C [35]: 67.2% | viability, T/C [36]: 63.4%
